From ChEMBL document CHEMBL5154678, “Lysine Stapling Screening Provides Stable and Low Toxic Cationic Antimicrobial Peptides Combating Multidrug-Resistant Bacteria In Vitro and In Vivo” (J Med Chem, 2022)
≈ marks a conversion by molar mass, not a printed value. Calls of active or inactive are those of the source. No cut-off for these calls is given here. Starred links: 1 amine or outer side, 2 acyl side, 3 side chain; linkers in the order of their positions; H or OH if unused. Positions of bridges follow the written chain, without caps; N, C: chain ends. Non-standard residues stand in square brackets, D forms with d. Residues, ends and D or L forms follow the SMILES beside them. X1 = O=C([C@H](CCCCNCC=[*:3])N[*:1])[*:2]

Assays:
Cell membrane [1] = test: Induction of membrane disruption in methicillin-resistant Staphylococcus aureus BNCC 186335 assessed as loss of cell integrity at 16 ug/ml measured after 2 hrs by SEM analysis; type: subcellular; conditions: dose 16.0 µg/ml
Pseudomonas aeruginosa [2] = test: Antibacterial activity against Pseudomonas aeruginosa BNCC 125486 assessed as inhibition of bacterial growth incubated for 16 hrs by broth microdilution method; type: functional
Staphylococcus aureus [3] = test: Antibacterial activity against methicillin-resistant Staphylococcus aureus BNCC 186335 assessed as inhibition of bacterial growth incubated for 4 hrs in presence of 25% plasma by broth microdilution method; type: functional
Staphylococcus aureus [4] = test: Drug resistance development in Staphylococcus aureus assessed as change in MIC at sub-MIC concentration measured after 60 passages; type: functional, organism-based
[5] = Toxicity in C57BL/6 mouse assessed as effect on body weight at 5 to 20 mg/kg, ip administered once daily for 5 days and measured every 24 hrs; type: organism-based; conditions: in vivo, 120 h, dose 5-20 mg/kg, time 5 day
Klebsiella pneumoniae = test: Antibacterial activity against multidrug-resistant Klebsiella pneumoniae assessed as inhibition of bacterial growth incubated for 16 hrs by broth microdilution method; type: functional
Cell membrane [6] = test: Induction of membrane disruption in multidrug-resistant Acinetobacter baumannii assessed as loss of cell integrity at 16 ug/ml measured after 2 hrs by SEM analysis; type: subcellular; conditions: dose 16.0 µg/ml
Cell membrane [7] = test: Induction of membrane damage in multidrug-resistant Acinetobacter baumannii assessed as concentration of stained cells incubated for 2 hrs by propidium iodide staining based flow cytometer assay; type: subcellular; conditions: dose 16.0 µg/ml
[8] = Toxicity in C57BL/6 mouse assessed as effect on blood urea nitrogen level at 5 to 20 mg/kg, ip administered once daily for 5 days and measured after 6 days; type: organism-based; conditions: in vivo, 120 h, dose 5-20 mg/kg, time 5 day
Staphylococcus aureus [9] = test: Antibacterial activity against Staphylococcus aureus BNCC 186335 assessed as inhibition of bacterial growth incubated for 16 hrs by broth microdilution method; type: functional
Escherichia coli [10] = test: Antibacterial activity against cephalosporin-resistant Escherichia coli BNCC 133264 assessed as inhibition of bacterial growth incubated for 16 hrs by broth microdilution method; type: functional
Staphylococcus aureus [11] = test: Antibacterial activity against methicillin-resistant Staphylococcus aureus assessed as inhibition of bacterial growth incubated for 16 hrs by broth microdilution method; type: functional
Cell membrane [12] = test: Induction of membrane damage in methicillin-resistant Staphylococcus aureus BNCC 186335 assessed as disruption of membrane integrity at 16 ug/ml incubated for 2 hrs by propidium iodide staining based assay; conditions: dose 16.0 µg/ml
Pseudomonas aeruginosa [13] = test: Antibacterial activity against multidrug-resistant Pseudomonas aeruginosa BNCC 125486 assessed as inhibition of bacterial growth incubated for 16 hrs by broth microdilution method; type: functional
[14] = Toxicity in C57BL/6 mouse assessed as abnormalities and pathological changes in kidney at 20 mg/kg, ip administered once daily for 5 days by H and E staining based assay; type: organism-based; conditions: in vivo, 120 h, time 5 day
Erythrocyte = test: Hemolytic activity against human RBC assessed as concentration required to cause 10% hemolysis; type: toxicity, cell-based
Acinetobacter baumannii [15] = test: Bactericidal activity against multidrug-resistant Acinetobacter baumannii assessed as log reduction in colony forming unit at 32 ug/ml measured after 10 mins by time kill assay; type: functional, organism-based; conditions: dose 32.0 µg/ml
Staphylococcus aureus [16] = test: Antibacterial activity against multidrug-resistant Staphylococcus aureus BNCC 186335 assessed as inhibition of bacterial growth incubated for 16 hrs by broth microdilution method; type: functional
Escherichia coli [17] = test: Antibacterial activity against multidrug-resistant Escherichia coli BNCC 133264 assessed as inhibition of bacterial growth incubated for 16 hrs by broth microdilution method; type: functional
Listeria monocytogenes = test: Antibacterial activity against Listeria monocytogenes assessed as inhibition of bacterial growth incubated for 16 hrs by broth microdilution method; type: functional
Escherichia coli [18] = test: Antibacterial activity against Escherichia coli BNCC 133264 assessed as inhibition of bacterial growth incubated for 16 hrs by broth microdilution method; type: functional
HEK-293T [19] = test: Cytotoxicity against human HEK293T cells assessed as cell survival rate at 256 ug/ml incubated for 24 hrs by MTT assay; type: toxicity, cell-based; conditions: dose 256 µg/ml
[20] = Toxicity in C57BL/6 mouse assessed as effect on alanine aminotransferase level at 5 to 20 mg/kg, ip administered once daily for 5 days and measured after 6 days; type: organism-based; conditions: in vivo, 120 h, dose 5-20 mg/kg, time 5 day
[21] = Toxicity in C57BL/6 mouse assessed as effect on aspartate transaminase level at 5 to 20 mg/kg, ip administered once daily for 5 days and measured after 6 days; type: organism-based; conditions: in vivo, 120 h, dose 5-20 mg/kg, time 5 day
Enterococcus faecium = test: Antibacterial activity against multidrug-resistant Enterococcus faecium assessed as inhibition of bacterial growth incubated for 16 hrs by broth microdilution method; type: functional
HEK-293T [22] = test: Cytotoxicity against human HEK293T cells assessed as cell survival rate at 64 Ug/ml incubated for 24 hrs by MTT assay relative to control; type: toxicity, cell-based; conditions: dose 64 µg/ml
[23] = Toxicity in C57BL/6 mouse assessed as abnormalities and pathological changes in liver at 20 mg/kg, ip administered once daily for 5 days by H and E staining based assay; type: organism-based; conditions: in vivo, 120 h, time 5 day
Cell membrane [24] = test: Induction of membrane damage in methicillin-resistant Staphylococcus aureus BNCC 186335 assessed as concentration of stained cells incubated for 2 hrs by propidium iodide staining based flow cytometer assay; type: subcellular; conditions: DDE = dose-dependent effect
Staphylococcus aureus [25] = test: Antibacterial activity against methicillin-resistant Staphylococcus aureus BNCC 186335 infected in mouse C57BL/6 assessed as reduction in intracellular bacterial burden in spleen at 2 mg/kg ,ip incubated for 24 hrs; type: functional, organism-based
Acinetobacter baumannii [26] = test: Antibacterial activity against multidrug-resistant Acinetobacter baumannii assessed as inhibition of bacterial growth incubated for 16 hrs by broth microdilution method; type: functional
[27] = Stability in human plasma assessed as half life measured after 24 hrs by HPLC analysis; type: ADME, cell-free
Staphylococcus aureus [28] = test: Antibacterial activity against methicillin-resistant Staphylococcus aureus BNCC 186335 infected in mouse C57BL/6 assessed as reduction in intracellular bacterial burden in liver at 2 mg/kg ,ip incubated for 24 hrs; type: functional, organism-based

What does the source list for `CC(C)[C@H](N)C(=O)N[C@@H](CCCCN)C(=O)N[C@@H](CCCNC(=N)N)C(=O)N[C@@H](Cc1ccccc1)C(=O)N[C@@H](CCCCN)C(=O)N[C@H]1CCCCNC/C=C/CNCCCC[C@@H](C(=O)N[C@@H](Cc2ccccc2)C(=O)N[C@@H](CCCCN)C(=O)N[C@@H](CCCCN)C(=O)N[C@@H](Cc2ccccc2)C(=O)N[C@H](C(N)=O)C(C)C)NC(=O)[C@H](CCCNC(=N)N)NC(=O)[C@H](Cc2ccccc2)NC(=O)[C@H](Cc2ccccc2)NC1=O` (H-VKRFK[X1]FFR[X1]FKKFV-NH2; staple (E) 6-10)?
Activity (Cell membrane [1]): Active; MIC (Pseudomonas aeruginosa [2]): 16 µg/mL (≈ 7.68 µM); Activity (Staphylococcus aureus [3]): Active; Activity (Staphylococcus aureus [4]): Active; Activity [5]: Non-Toxic; MIC (Klebsiella pneumoniae): 32 µg/mL (≈ 15.4 µM); Activity (Cell membrane [6]): Active; Activity (Cell membrane [7]): 80%; Activity [8]: Non-Toxic; MIC (Staphylococcus aureus [9]): 2 µg/mL (≈ 0.959 µM); MIC (Escherichia coli [10]): 8 µg/mL (≈ 3.84 µM); MIC (Staphylococcus aureus [11]): 2 µg/mL (≈ 0.959 µM); Activity (Cell membrane [12]): Active; MIC (Pseudomonas aeruginosa [13]): 8 µg/mL (≈ 3.84 µM); Activity [14]: Non-Toxic; MHC (Erythrocyte): > 128 µg/mL; Activity (Acinetobacter baumannii [15]): Active; MIC (Staphylococcus aureus [16]): 8 µg/mL (≈ 3.84 µM); MIC (Escherichia coli [17]): 4 µg/mL (≈ 1.92 µM); MIC (Listeria monocytogenes): 4 µg/mL (≈ 1.92 µM); MIC (Escherichia coli [18]): 2 µg/mL (≈ 0.959 µM); Activity (HEK-293T [19]): Toxic; Activity [20]: Non-Toxic; Activity [21]: Non-Toxic; MIC (Enterococcus faecium): 4 µg/mL (≈ 1.92 µM); Activity (HEK-293T [22]): Toxic; Activity [23]: Non-Toxic; Activity (Cell membrane [24]): Dde; Activity (Staphylococcus aureus [25]): Active; MIC (Acinetobacter baumannii [26]): 4 µg/mL (≈ 1.92 µM); half-life [27]: 13 h; Activity (Staphylococcus aureus [28]): Active
